Square brackets hold non-standard residues; d marks the D form. Peptide text beside a SMILES is read from it. * marks the point of attachment. dPhe(4-NHCONH2) = NC(=O)Nc1ccc(C[C@@H](N)C(=O)O)cc1; Dihydroorotyl(S) = O=C1C[C@@H](C(=O)*)NC(=O)N1; dPhe(4-Cl) = N[C@H](Cc1ccc(Cl)cc1)C(=O)O; Phe(4-NH2) = Nc1ccc(C[C@H](N)C(=O)O)cc1; d2Nal = N[C@H](Cc1ccc2ccccc2c1)C(=O)O; Lys(iPr) = CC(C)NCCCC[C@H](N)C(=O)O; d3Pal = N[C@H](Cc1cccnc1)C(=O)O
Columns and labels:
men with BPH = assay: Post-void residual volume by transabdominal ultrasound; format: in vivo; details: all treatment groups
Experimental: For each patient, the following parameters were measured or assessed (using the methods discussed below), at time points of screening day 0 (e.g., −7 days, “baseline”), day 14, day 28, and day 42:
2) Efficacy Endpoints—the measured Peak Urinary Flow, Post-void Residual Volume, and Prostate Volume.
The Post-void Residual Volume (PVR) was evaluated by transabdominal ultrasound. The urine in the patient's bladder was sonicated from two directions perpendicular to one another resulting in three cursor positions set by the urologist. The volume was calculated automatically. The investigations were performed by urologists by methods known in the art.

testosterone = assay: Serum testosterone concentration-time profile (LC-MS/MS); format: in vivo, men; details: for Number of patients with testosterone below the castration level 0.5 ng/mL at one or more time-points / Percentage of patients with testosterone below the castration level 0.5 ng/mL at one or more time-points: up to Day 42; for Mean time to second return of testosterone to baseline interval (after the second administration): calculated, not measured values
[1] = 16+16 mg, after the first administration
[2] = 16+16 mg, after the second administration
[3] = 32+32 mg, after the first administration
[4] = 32+32 mg, after the second administration
[5] = first dose of the 32+32 mg combined with the single dose 32 mg data

CC(=O)N[C@H](Cc1ccc2ccccc2c1)C(=O)N[C@H](Cc1ccc(Cl)cc1)C(=O)N[C@H](Cc1cccnc1)C(=O)N[C@@H](CO)C(=O)N[C@@H](Cc1ccc(NC(=O)[C@@H]2CC(=O)NC(=O)N2)cc1)C(=O)N[C@H](Cc1ccc(NC(N)=O)cc1)C(=O)N[C@@H](CC(C)C)C(=O)N[C@@H](CCCCNC(C)C)C(=O)N1CCC[C@H]1C(=O)N[C@H](C)C(N)=O [Degarelix, D-Alaninamide, N-acetyl-3-(2-naphthalenyl)-D-alanyl-4-chloro-D-phenylalanyl-3-(3-pyridinyl)-D-alanyl-L-seryl-4-[[[(4S)-hexahydro-2,6-dioxo-4-pyrimidinyl]carbonyl]amino]-L-phenylalanyl-4-[(aminocarbonyl)amino]-D-phenylalanyl-L leucyl-N6-(1-methylethyl)-L-lysyl-L-prolyl] (Ac-[d2Nal][dPhe(4-Cl)][d3Pal]S[Phe(4-NH2)](Dihydroorotyl(S))[dPhe(4-NHCONH2)]L[Lys(iPr)]P[dA]-NH2)
Mean post-void residual volume (men with BPH; Day 14, apparent dose dependent way): decreased | Mean post-void residual volume versus baseline (men with BPH; Day 42): lower than the baseline value | Number of patients in whom post-void residual volume had decreased compared to baseline (men with BPH; Day 42): 33 patients | Number of patients in whom post-void residual volume increased compared to baseline (men with BPH; Day 42): 17 patients | Greatest change from baseline in mean testosterone (testosterone; 32 mg): -4.2 ng/mL | Mean minimal value of testosterone (Cnadir) (testosterone; 32 mg): 0.9 ng/mL | Mean time-point (tnadir) to Cnadir of testosterone (testosterone; 32 mg): 1.3 days | Lowest mean testosterone level (testosterone; 32 mg, Day 1, SD 0.5): 0.9 ng/mL | Mean testosterone level on Day 42 (testosterone; 32 mg, Day 42 (5.2 at baseline)): 5.3 ng/mL | Mean time for first return of testosterone to baseline interval after the first administration (testosterone; 32 mg, SD=5.2): 9.1 days | Mean area of testosterone concentrations below 0.5 ng/mL (testosterone; 32 mg, range 0.0-0.1): 0.0 ng·days/mL | Number of patients with testosterone below the castration level 0.5 ng/mL at one or more time-points (testosterone; 32 mg): 3 patients | Percentage of patients with testosterone below the castration level 0.5 ng/mL at one or more time-points (testosterone; 32 mg): 25% | Greatest change from baseline in mean testosterone (testosterone; 64 mg): -4.7 ng/mL | Mean minimal value of testosterone (Cnadir) (testosterone; 64 mg): 0.4 ng/mL | Mean time-point (tnadir) to Cnadir of testosterone (testosterone; 64 mg): 8.8 days | Lowest mean testosterone level (testosterone; 64 mg, Day 1, SD 0.2): 0.4 ng/mL | Mean testosterone level on Day 42 (testosterone; 64 mg, Day 42 (5.2 at baseline)): 3.0 ng/mL | Patients still below testosterone 0.5 ng/mL on Day 42 (testosterone; 64 mg, Day 42, of the 8 patients suppressed): Five | Mean area of testosterone concentrations below 0.5 ng/mL (testosterone; 64 mg, range 0.0-15.2): 4.4 ng·days/mL | Number of patients with testosterone below the castration level 0.5 ng/mL at one or more time-points (testosterone; 64 mg): 9 patients | Percentage of patients with testosterone below the castration level 0.5 ng/mL at one or more time-points (testosterone; 64 mg): 69% | Greatest change from baseline in mean testosterone (testosterone; 16+16 mg): -4.0 ng/mL | Lowest mean testosterone level (testosterone; 16+16 mg, Day 1, SD 0.5): 1.4 ng/mL | Mean testosterone level on Day 42 (testosterone; 16+16 mg, Day 42 (5.5 at baseline)): 4.5 ng/mL | Mean time for first return of testosterone to baseline interval after the first administration (testosterone; 16+16 mg, SD=2.8): 6.1 days | Mean time to second return of testosterone to baseline interval (after the second administration) (testosterone; 16+16 mg, SD=33.9): 19.5 days | Mean minimal value of testosterone (Cnadir) (testosterone; [1]): 1.4 ng/mL | Mean time-point (tnadir) to Cnadir of testosterone (testosterone; [1]): 1.1 days | Mean minimal value of testosterone (Cnadir) (testosterone; [2]): 2.0 ng/mL | Mean time-point (tnadir) to Cnadir of testosterone (testosterone; [2]): 4.0 days | Mean area of testosterone concentrations below 0.5 ng/mL (testosterone; 16+16 mg, range 0.0-0.0): 0.0 ng·days/mL | Number of patients with testosterone below the castration level 0.5 ng/mL at one or more time-points (testosterone; 16+16 mg): 2 patients | Percentage of patients with testosterone below the castration level 0.5 ng/mL at one or more time-points (testosterone; 16+16 mg): 15% | Greatest change from baseline in mean testosterone (testosterone; 32+32 mg): -4.1 ng/mL | Lowest mean testosterone level (testosterone; 32+32 mg, Day 17 (after second administration), SD 0.3): 0.4 ng/mL | Subjects that had not regained testosterone levels >0.5 ng/mL at Day 42 (testosterone; 32+32 mg, Day 42): Three | Mean testosterone level on Day 42 (testosterone; 32+32 mg, Day 42 (4.5 at baseline)): 2.7 ng/mL | Mean time for first return of testosterone to baseline interval after the first administration (testosterone; 32+32 mg, SD=2.6): 9.1 days | Mean time to second return of testosterone to baseline interval (after the second administration) (testosterone; 32+32 mg, SD=83.5): 64.2 days | Mean minimal value of testosterone (Cnadir) (testosterone; [3]): 0.6 ng/mL | Mean time-point (tnadir) to Cnadir of testosterone (testosterone; [3]): 3.2 days | Mean minimal value of testosterone (Cnadir) (testosterone; [4]): 0.4 ng/mL | Mean time-point (tnadir) to Cnadir of testosterone (testosterone; [4]): 4.3 days | Mean area of testosterone concentrations below 0.5 ng/mL (testosterone; 32+32 mg, range 0.0-15.3): 2.8 ng·days/mL | Number of patients with testosterone below the castration level 0.5 ng/mL at one or more time-points (testosterone; 32+32 mg): 9 patients | Percentage of patients with testosterone below the castration level 0.5 ng/mL at one or more time-points (testosterone; 32+32 mg): 75% | Number of patients castrated (testosterone below 0.5 ng/mL), for generally 2-4 days (testosterone; [5]): 8 patients | Percentage of patients castrated (testosterone below 0.5 ng/mL), for generally 2-4 days (testosterone; [5]): 33% | Larger area below and longer time to return to the testosterone baseline interval (testosterone; groups given a total of 64 mg compared to the total dose 32 mg): more than 2 fold
